Our source for the IC50 values is US12116343B2, “Inhibitors of APOL1 and methods of using same” (Vertex Pharmaceuticals Incorporated, priority 2020, dated 2024).

Some results are limits rather than exact numbers.

The target in the test is T1, APOL1 G1 Protein (Homo sapiens, UniProt O14791, I384M/S342G).
T1 sequence (O14791 28-398 S342G/I384M): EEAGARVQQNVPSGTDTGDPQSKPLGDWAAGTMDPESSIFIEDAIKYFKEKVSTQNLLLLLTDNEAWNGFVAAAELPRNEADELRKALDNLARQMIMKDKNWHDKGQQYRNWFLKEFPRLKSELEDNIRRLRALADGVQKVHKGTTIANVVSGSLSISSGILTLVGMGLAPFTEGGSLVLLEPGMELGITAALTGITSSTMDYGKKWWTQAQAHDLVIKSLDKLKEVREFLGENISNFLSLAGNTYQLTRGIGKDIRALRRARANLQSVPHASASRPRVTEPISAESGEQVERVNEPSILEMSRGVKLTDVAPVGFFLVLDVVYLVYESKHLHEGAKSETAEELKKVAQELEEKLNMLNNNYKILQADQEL
Nature of the test: Trypanosoma brucei brucei lysis assay using APOL1 recombinant protein (AlamarBlue viability). The format is cell-based. To be noted: Trypanosoma brucei brucei lysis, recombinant APOL1, AlamarBlue; read-out: Trypanosoma Assay (IC50). The text has this: Trypanosoma brucei brucei is a blood stream parasite to which human, gorillas and baboon are immune due to the presence of the APOL1 protein in their HDL particles. The protein is uptaken by the parasite via the TbHpHb receptor located in its flagellar pocket and is bonded by the Hpr protein contained in the HDL particles which triggers the receptor endocytosis by the parasite.
Following endocytosis, the formed vesicle containing the HDL particle matures from early to late endosome, and subsequently to lysosome. The concomitant pH change in the lumen of the vesicle triggers the insertion of the APOL1 protein into the membrane of the late endosome/lysosome and hereby triggers lysosomal membrane premeabilisation and as a further downstream event, trypanosome lysis. Trypanosoma brucei brucei is sensitive to lysis by all three APOL1 variants (G0, G1, and G2).
The Trypanosoma brucei brucei lysis assay is a lysis assay of the parasite using recombinant APOL1 protein variant followed by a fluorescent detection method of viability by the addition of AlamarBlue reagent to the assay well, a general metabolic redox indicator (AlamarBlue assay).
Briefly, the AlamarBlue active compound, the resazurin, a blue, water soluble, non-toxic and cell permeable molecule, which can be followed by absorbance, is reduced by various metabolic pathways into resorufin, a red compound which can be followed by either absorbance or fluorescence. The assay allows the calculation of the percent viability (percent of living Trypanosomes remaining in each well) at the end of a lysis relative to the untreated condition by interpolation of fluorescent values (FLU) on a standard curve with a known amount of seeded trypanosome/well.
Trypanosoma brucei brucei (ATCC, Cat. No. PRA-382) • Lister 427 VSG 221 bloodstream form.
Thaw/Expansion Media (ATCC Medium 2834 Modified HMI-9 Medium)
Assay Media (No Phenol Red/No FBS): Make on Day of Use
Hypoxanthine Stock (100×)-9 (10×)
Equipment • El-Clip Tip pipette 12 channel adjustable 2-125 μL, Cat. No. 4672070BT • ThermoFisher MultiDrop 384, Cat. No. 5840300 • Multidrop • Agilent Bravo, Cat. No. G5409A • Bravo • SpectraMax M5
Assay Ready Plates (ARPs) • ARPs comes in two formats: • […] final top concentration with a 2.5 fold dilution down. • […] final top concentration with a 3 fold dilution down. • Both have a 10 point Dose response. • 0.1% DMSO final in the Black Assay Plate. • Compounds are diluted 1000 fold in the Black Assay Plate. • Each plate is designed for 14 compounds in duplicate. • In the final Black Assay Plate:
Trypanosoma brucei brucei Culture
Step 2, Day 4 • Centrifuge at 800×g for 5 minutes at room temperature. • Resuspend in 1 mL media. • Make a 1:25 fold dilution (10 μL/240 μL media). • Count on a hemocytometer (after adding parasites). • Let sit for 1-2 minutes for the parasites to settle. • Count should be approximately 100 viable motile parasites/16 grid or approximately 25×10^6 parasites/flask. • Passage the parasites by adding 1×10^6 parasites/T75 flask in 20 mL media. • Passage the parasites by adding 2.33×10^6 parasites/T175 flask in 46.6 mL media. • For every T75 flask should make enough for approximately 1.5×384 well assay plates. • For every T175 flask should make enough for approximately 3.8×384 well assay plates.
Step 3, Day 6 • Centrifuge at 800×g for 5 minutes. • Resuspend in 3 mL assay media (No phenol red, no FBS) per 75 starting flask. • Resuspend in 7 mL assay media (No phenol red, no FBS) per 175 flask • Make a 1:25 fold dilution. • Count by hemocytometer. • Every T75 flask set up should have approximately 75×10^6 parasites/flask (verify doubling time=8.7 hrs±1 hr). • Every T175 flask set up should have approximately 175×10^6 parasites/flask (verify doubling time=8.7 hrs±1 hr). • Require 46×10^6 parasites per 384 well plate (at 120,000 parasites per well). Protocol B […]
In general terms: The colour change of resazurin is a common sign of viable cells or microbes.

On to `O=C(NCC1(O)CCC1)[C@H]1C[C@H](c2c(-c3ccc(F)cc3)[nH]c3c(F)cc(F)cc32)C1` [Compound 143], for which the IC50 was more than 1000 nM.

Turning to `O=C([C@H]1C[C@H](c2c(-c3ccc(F)cc3)[nH]c3c(F)cc(F)cc32)C1)N1CCOCC1CCO` (stereo partly drawn) [Compound 113], the 50% inhibitory concentration (IC50) was more than 1000 nM.

As for `O=C(NCCOCCO)[C@H]1C[C@H](c2c(-c3ccc(F)cc3)[nH]c3c(F)cc(F)cc32)C1` [Compound 125], the concentration for half-maximal inhibition (IC50) was less than 250 nM.

On to `CCC(O)(CCCO)CNC(=O)[C@H]1C[C@H](c2c(-c3ccc(F)cc3)[nH]c3c(F)cc(F)cc32)C1` (stereo partly drawn) [Compound 119], for which the IC50 is more than 1000 nM.

`CC(CO)N1CCN(C(=O)[C@H]2C[C@H](c3c(-c4ccc(F)cc4)[nH]c4c(F)cc(F)cc43)C2)CC1` (mixture of isomers) [Compound 122]: the IC50 is more than 1000 nM.

Regarding `O=C([C@H]1C[C@H](c2c(-c3ccc(F)cc3)[nH]c3c(F)cc(F)cc32)C1)N1CCCC[C@H]1CO` [Compound 146], the 50% inhibitory concentration (IC50) was 250 to 1000 nM.

In the case of `CO[C@H]1CCN(C(=O)[C@H]2C[C@H](c3c(-c4ccc(F)cc4)[nH]c4c(F)cc(F)cc43)C2)C1` [Compound 95], the IC50 was more than 1000 nM.

For the molecule `CN(CC1(CO)CCOCC1)C(=O)[C@H]1C[C@H](c2c(-c3ccc(F)cc3)[nH]c3c(F)cc(F)cc32)C1` [Compound 120], the IC50 is more than 1000 nM.

With `O=C1CC[C@@H](NC(=O)[C@H]2C[C@H](c3c(-c4ccc(F)cc4)[nH]c4c(F)cc(F)cc43)C2)C1` [Compound 157], the IC50 was more than 1000 nM.

In the case of `C[C@H](CO)N(C)C(=O)[C@H]1C[C@H](c2c(-c3ccc(F)cc3)[nH]c3c(F)cc(F)cc32)C1` [Compound 142], the half-maximal inhibitory concentration (IC50) was less than 250 nM.

As for `O=C1C[C@H](NC(=O)[C@H]2C[C@H](c3c(-c4ccc(F)cc4)[nH]c4c(F)cc(F)cc43)C2)C(=O)N1` [Compound 165], the IC50 is less than 250 nM.

In the case of `O=C([C@H]1C[C@H](c2c(-c3ccc(F)cc3)[nH]c3c(F)cc(F)cc32)C1)N1CCC[C@@H](O)C1` [Compound 149], the IC50 is less than 250 nM.

For the molecule `O=C([C@H]1C[C@H](c2c(-c3ccc(F)cc3)[nH]c3c(F)cc(F)cc32)C1)N1CCC2(COC2)C1` [Compound 103], the IC50 is more than 1000 nM.

Regarding `CC(O)CN(CCO)C(=O)[C@H]1C[C@H](c2c(-c3ccc(F)cc3)[nH]c3c(F)cc(F)cc32)C1` (mixture of isomers) [Compound 129], the half-inhibitory concentration (IC50) is less than 250 nM.

Regarding `O=C1CC[C@H](NC(=O)[C@H]2C[C@H](c3c(-c4ccc(F)cc4)[nH]c4c(F)cc(F)cc43)C2)C1` [Compound 139], the IC50 fell in the range of 250 to 1000 nM.

Take `O=C([C@H]1C[C@H](c2c(-c3ccc(F)cc3)[nH]c3c(F)cc(F)cc32)C1)N1CCCC[C@@H]1CCO` [Compound 156]: the IC50 is more than 1000 nM.

As for `O=C1CCC(NC(=O)[C@H]2C[C@H](c3c(-c4ccc(F)cc4)[nH]c4c(F)cc(F)cc43)C2)C1` (stereo partly drawn) [Compound 159], the IC50 is more than 1000 nM.

Turning to `O=C([C@H]1C[C@H](c2c(-c3ccc(F)cc3)[nH]c3c(F)cc(F)cc32)C1)N1CC(O)C(CO)C1` (stereo partly drawn) [Compound 138], the IC50 was 250 to 1000 nM.

As for `CCC1(O)CN(C(=O)[C@H]2C[C@H](c3c(-c4ccc(F)cc4)[nH]c4c(F)cc(F)cc43)C2)C1` [Compound 112], the half-maximal inhibitory concentration (IC50) was more than 1000 nM.

Consider `O=C([C@H]1C[C@H](c2c(-c3ccc(F)cc3)[nH]c3c(F)cc(F)cc32)C1)N1CCCC(CCO)C1` (stereo partly drawn) [Compound 128], for which the 50% inhibitory concentration (IC50) was more than 1000 nM.

Take `O=C([C@H]1C[C@H](c2c(-c3ccc(F)cc3)[nH]c3c(F)cc(F)cc32)C1)N1CCC(CO)(CO)CC1` [Compound 108]: the IC50 was more than 1000 nM.

Consider `O=C([C@H]1C[C@H](c2c(-c3ccc(F)cc3)[nH]c3c(F)cc(F)cc32)C1)N1CC[C@H](CO)[C@H](O)C1` [Compound 100], for which the IC50 is more than 1000 nM.

With `O=C([C@H]1C[C@H](c2c(-c3ccc(F)cc3)[nH]c3c(F)cc(F)cc32)C1)N1CC[C@H](CO)C1` [Compound 140], the IC50 is more than 1000 nM.

For the molecule `O=C1NCC[C@@H]1NC(=O)[C@H]1C[C@H](c2c(-c3ccc(F)cc3)[nH]c3c(F)cc(F)cc32)C1` [Compound 162], the IC50 was 250 to 1000 nM.

On to `CN1CCC(NC(=O)[C@H]2C[C@H](c3c(-c4ccc(F)cc4)[nH]c4c(F)cc(F)cc43)C2)C1=O` (stereo partly drawn) [Compound 7], for which the half-maximal inhibitory concentration (IC50) was in the range of 250 to 1000 nM.

In the case of `O=C([C@H]1C[C@H](c2c(-c3ccc(F)cc3)[nH]c3c(F)cc(F)cc32)C1)N1CCN(CCO)CC1` [Compound 126], the IC50 was more than 1000 nM.

`O=C([C@H]1C[C@H](c2c(-c3ccc(F)cc3)[nH]c3c(F)cc(F)cc32)C1)N1CCC[C@H](O)C1` [Compound 105]: the IC50 lay within 250 to 1000 nM.

In the case of `CC(O)C1CCCN(C(=O)[C@H]2C[C@H](c3c(-c4ccc(F)cc4)[nH]c4c(F)cc(F)cc43)C2)C1` (stereo partly drawn) [Compound 131], the IC50 is more than 1000 nM.

`O=C([C@H]1C[C@H](c2c(-c3ccc(F)cc3)[nH]c3c(F)cc(F)cc32)C1)N1CCO[C@H](CO)C1` [Compound 118]: the IC50 is more than 1000 nM.

For the molecule `C[C@@H](O)[C@@H](CO)NC(=O)[C@H]1C[C@H](c2c(-c3ccc(F)cc3)[nH]c3c(F)cc(F)cc32)C1` [Compound 160], the 50% inhibitory concentration (IC50) was less than 250 nM.

For `NC(=O)[C@H]1CCN(C(=O)[C@H]2C[C@H](c3c(-c4ccc(F)cc4)[nH]c4c(F)cc(F)cc43)C2)C1` [Compound 154], the half-maximal inhibitory concentration (IC50) is more than 1000 nM.

Regarding `O=C([C@H]1C[C@H](c2c(-c3ccc(F)cc3)[nH]c3c(F)cc(F)cc32)C1)N1CC(O)C(N2CCOCC2)C1` (stereo partly drawn) [Compound 106], the IC50 was more than 1000 nM.

Consider `O=C([C@H]1C[C@H](c2c(-c3ccc(F)cc3)[nH]c3c(F)cc(F)cc32)C1)N1CC2(CC(O)C2)C1` [Compound 137], for which the half-inhibitory concentration (IC50) was more than 1000 nM.

For `CC(C)N(CCO)C(=O)[C@H]1C[C@H](c2c(-c3ccc(F)cc3)[nH]c3c(F)cc(F)cc32)C1` [Compound 123], the IC50 fell in the range of 250 to 1000 nM.

Turning to `O=C(NC(CO)CO)[C@H]1C[C@H](c2c(-c3ccc(F)cc3)[nH]c3c(F)cc(F)cc32)C1` [Compound 8], the IC50 was less than 250 nM.

`CN(CC(O)CO)C(=O)[C@H]1C[C@H](c2c(-c3ccc(F)cc3)[nH]c3c(F)cc(F)cc32)C1` (stereo partly drawn) [Compound 158]: the IC50 fell in the range of 250 to 1000 nM.

With `O=C([C@H]1C[C@H](c2c(-c3ccc(F)cc3)[nH]c3c(F)cc(F)cc32)C1)N(CCO)c1cnccn1` [Compound 132], the IC50 is more than 1000 nM.

In the case of `NC(=O)C1CCN(C(=O)[C@H]2C[C@H](c3c(-c4ccc(F)cc4)[nH]c4c(F)cc(F)cc43)C2)CC1` [Compound 133], the concentration for half-maximal inhibition (IC50) was more than 1000 nM.

In the case of `NC(=O)[C@H]1CCCN1C(=O)[C@H]1C[C@H](c2c(-c3ccc(F)cc3)[nH]c3c(F)cc(F)cc32)C1` [Compound 153], the 50% inhibitory concentration (IC50) is less than 250 nM.

One may read the IC50 as the concentration at which inhibition is half-maximal.
